Measurements taken from patent US9463211B2, “Skin salve for treating intertrigo” (priority 2007, dated 2016).

System: intertrigo
Test: Topical application of the skin salve to patients suffering from intertrigo
Type: in vivo, human
Details: Example 2: person with diabetes, underside of breasts; before use of the skin salve
Protocol: In this experiment the skin salve made in Example 1 was evaluated on a person suffering from diabetes and intertrigo on the underside of their breasts. The intertrigo had caused the skin to be inflamed, burned, and was raw in some areas. This skin condition was painful and was aggravated by the patient's bra, heat, and sweat. Additionally, the intertrigo was an unsightly rash.
This patient had treated their intertrigo with a variety of over-the-counter salves and powders without success.
This patient topically applied the skin salve of this invention which was made by the procedure described in Example 1 to the inflamed skin under their breasts on two consecutive evenings after taking a bath. […]
In this experiment the skin salve made in Example 1 was evaluated on another person suffering from diabetes and intertrigo on the underside of their breasts. […]
In this experiment the skin salve made in Example 1 was evaluated on another person suffering from intertrigo on the underside of their breasts. […]
In this experiment the skin salve made in Example 1 was evaluated on a person suffering from intertrigo on the underside of their breasts. […]
In this experiment the skin salve made in Example 1 was evaluated on a person suffering from intertrigo on the underside of their breasts and the underside of their belly. […]

`CC(C)O` [isopropyl alcohol] was tested, and the “effect on intertrigo of the patient's earlier treatments” value was “without any relief”.
